{"source": "patent US10961539B2", "about": "“Promoter system inducing expression by 3-hydroxypropionic acid and method for biological production of 3-hydroxypropionic acid using same” (NOROO IC Co., Ltd., priority 2015, dated 2021)", "key": {"[1]": {"test_system": "mmsadh", "experiment": "GFP reporter inserted at mmsadh position", "format": "cell-based, Pseudomonas denitrificans", "details": "w 3-HP 25 mM", "source_text": "The effect of the O1 and O2 operators on biosynthesis of the C4-LysR protein and the mmsadh expression was examined by using a green fluorescent protein (GFP) as a reporter (Table 2). In Table 2, the effect of the C4-LysR protein and the O1 and O2 operators on the expression of the C4-LysR and the mmsadh. The relative size of the GFP was shown relative to the wild type in the absence of 3-HP. the C4-LysR protein was either not present or was produced by a constitutive promoter, and a plasmid was prepared to control the expression of the GFP upon the existing promoter having the O1 and O2 operators. Then, the experiment was carried out by inserting the prepared plasmid into a host of P. denitrificans from which genes between the C4-LysR and the mmsadh was deleted. Accordingly, the expression of the GFP was suppressed by the C4-LysR protein itself. That is, when the C4-LysR is expressed, the GFP expression was reduced by more than 10-fold. In addition, the expression regulation was also constant regardless of the presence of 3-HP. In this regard, it was confirmed that the transcription of C4-LysR mRNA was negatively regulated by the C4-LysR protein. This experiment was repeated by using a promoter that randomized the O1 and O2 operators to eliminate the symmetrical dyad. As a result, in the case where the O1 or O2 operator site was randomized, the GFP expression was not regulated by the C4-LysR protein, referring that the C4-LysR protein in the P. denitrificans strain was negatively regulated by the strain itself.\nMeanwhile, the effect of the O1 and O2 operators on the mmsadh gene expression was examined in a similar manner. That is, the C4-LysR protein was constitutively expressed, and a plasmid was prepared so that GFP can be located after a promoter having O1 and O2 promoters. Here, an O1 or O2 operator was mutated so that the symmetrical dyad of an O1 or O2 site was randomized. As a result, when the O1 or O2 site was mutated, the phenomenon of up-regulation of transcription by 3-HP disappeared. That is, it means that the O1 and O2 operators are all essential sites for up-regulation of the expression by 3-HP."}, "[2]": {"test_system": "3hibdh", "format": "cell-based, microorganisms shown in Table 1"}, "[3]": {"test_system": "3hpdh", "experiment": "RT-PCR relative mRNA level of 3-HP catabolic gene"}}, "note": "Where “and” joins values, the source holds several entries; their conditions need not be identical. Equal values may be shown once. Read-outs that look alike come from different tables or passages of the source.", "data": [{"molecule": "O=C(O)CCO", "note": "[3-HP, 3-hydroxypropionic acid]", "values": [{"measurement": "relative size of GFP (relative to wild type in the absence of 3-HP)", "setting": "[1]; O1 & O2 mutation", "value": 3}, {"measurement": "relative size of GFP (relative to wild type in the absence of 3-HP)", "setting": "[1]; O1 mutation", "value": 3}, {"measurement": "relative size of GFP (relative to wild type in the absence of 3-HP)", "setting": "[1]; O2 mutation", "value": 3}, {"measurement": "relative size of GFP (relative to wild type in the absence of 3-HP)", "setting": "[1]; wildtype", "value": 55}, {"measurement": "relative size of GFP (relative to wild type in the absence of 3-HP)", "setting": "[1]; ΔC4-LysR", "value": 3}, {"measurement": "Relative mRNA level 3hibdh + 3-HP", "setting": "[2]", "value": "7.21 and 6.43"}, {"measurement": "Relative mRNA level 3hibdh + 3-HP", "setting": "[2]; Achromobacter denitrificans, + 3-HP", "value": 6.40}, {"measurement": "Relative mRNA level 3hibdh + 3-HP", "setting": "[2]; Acidovorax avenae subsp., + 3-HP", "value": 5.97}, {"measurement": "Relative mRNA level 3hibdh + 3-HP", "setting": "[2]; Acidovorax sp., + 3-HP", "value": 6.76}, {"measurement": "Relative mRNA level 3hibdh + 3-HP", "setting": "[2]; Acinetobacter baumannii, + 3-HP", "value": 6.02}, {"measurement": "Relative mRNA level 3hibdh + 3-HP", "setting": "[2]; Aeromonas hydrophilia, + 3-HP", "value": 6.17}, {"measurement": "Relative mRNA level 3hibdh + 3-HP", "setting": "[2]; Agrobacterium sp., + 3-HP", "value": 6.27}, {"measurement": "Relative mRNA level 3hibdh + 3-HP", "setting": "[2]; Alcaligenes faecalis, + 3-HP", "value": 5.87}, {"measurement": "Relative mRNA level 3hibdh + 3-HP", "setting": "[2]; Alcanivorax hongdengensis, + 3-HP", "value": 6.74}, {"measurement": "Relative mRNA level 3hibdh + 3-HP", "setting": "[2]; Alicychphilus denitrificans, + 3-HP", "value": 7.01}, {"measurement": "Relative mRNA level 3hibdh + 3-HP", "setting": "[2]; Alteromonas marina, + 3-HP", "value": 6.09}, {"measurement": "Relative mRNA level 3hibdh + 3-HP", "setting": "[2]; Amycolatopsis sp., + 3-HP", "value": 5.96}, {"measurement": "Relative mRNA level 3hibdh + 3-HP", "setting": "[2]; Anaeromyxobacter dehalogenans, + 3-HP", "value": 6.43}, {"measurement": "Relative mRNA level 3hibdh + 3-HP", "setting": "[2]; Azospirillum brasilensse, + 3-HP", "value": 6.54}, {"measurement": "Relative mRNA level 3hibdh + 3-HP", "setting": "[2]; Azotobacter vinelandii, + 3-HP", "value": 6.73}, {"measurement": "Relative mRNA level 3hibdh + 3-HP", "setting": "[2]; Beijerinckia indica, + 3-HP", "value": 6.59}, {"measurement": "Relative mRNA level 3hibdh + 3-HP", "setting": "[2]; Bordetella avium, + 3-HP", "value": 6.04}, {"measurement": "Relative mRNA level 3hibdh + 3-HP", "setting": "[2]; Bradyrhizobium japonicum, + 3-HP", "value": 7.21}, {"measurement": "Relative mRNA level 3hibdh + 3-HP", "setting": "[2]; Burkholderia ambifaria, + 3-HP", "value": 5.94}, {"measurement": "Relative mRNA level 3hibdh + 3-HP", "setting": "[2]; Castellaniella defragrans, + 3-HP", "value": 7.43}, {"measurement": "Relative mRNA level 3hibdh + 3-HP", "setting": "[2]; Catenulispora acidiphilia, + 3-HP", "value": 5.84}, {"measurement": "Relative mRNA level 3hibdh + 3-HP", "setting": "[2]; Caulobacter sp., + 3-HP", "value": 5.96}, {"measurement": "Relative mRNA level 3hibdh + 3-HP", "setting": "[2]; Chromobacterium violaceum, + 3-HP", "value": 7.02}, {"measurement": "Relative mRNA level 3hibdh + 3-HP", "setting": "[2]; Collimonas arenae, + 3-HP", "value": 7.20}, {"measurement": "Relative mRNA level 3hibdh + 3-HP", "setting": "[2]; Comamonas testosteroni, + 3-HP", "value": 5.88}, {"measurement": "Relative mRNA level 3hibdh + 3-HP", "setting": "[2]; Corynebacterium vitaeruminis, + 3-HP", "value": 6.99}, {"measurement": "Relative mRNA level 3hibdh + 3-HP", "setting": "[2]; Cupriavidus necator, + 3-HP", "value": 6.84}, {"measurement": "Relative mRNA level 3hibdh + 3-HP", "setting": "[2]; Curvibacter gracilus, + 3-HP", "value": 5.76}, {"measurement": "Relative mRNA level 3hibdh + 3-HP", "setting": "[2]; Delftia acidovorans, + 3-HP", "value": 6.34}, {"measurement": "Relative mRNA level 3hibdh + 3-HP", "setting": "[2]; Ferrimonas balearica, + 3-HP", "value": 7.04}, {"measurement": "Relative mRNA level 3hibdh + 3-HP", "setting": "[2]; Glaciecola nitratireducens, + 3-HP", "value": 7.11}, {"measurement": "Relative mRNA level 3hibdh + 3-HP", "setting": "[2]; Gordonia bronchialis, + 3-HP", "value": 6.99}, {"measurement": "Relative mRNA level 3hibdh + 3-HP", "setting": "[2]; Hahella chijuensis, + 3-HP", "value": 6.81}, {"measurement": "Relative mRNA level 3hibdh + 3-HP", "setting": "[2]; Halomonas elongata, + 3-HP", "value": 5.41}, {"measurement": "Relative mRNA level 3hibdh + 3-HP", "setting": "[2]; Hirschia litorea, + 3-HP", "value": 6.19}, {"measurement": "Relative mRNA level 3hibdh + 3-HP", "setting": "[2]; Idiomarina sp., + 3-HP", "value": 7.21}, {"measurement": "Relative mRNA level 3hibdh + 3-HP", "setting": "[2]; Janthinobacterium lividum, + 3-HP", "value": 6.98}, {"measurement": "Relative mRNA level 3hibdh + 3-HP", "setting": "[2]; Kitasatospora setae, + 3-HP", "value": 6.46}, {"measurement": "Relative mRNA level 3hibdh + 3-HP", "setting": "[2]; Kutzneria albida, + 3-HP", "value": 5.96}, {"measurement": "Relative mRNA level 3hibdh + 3-HP", "setting": "[2]; Methylobacterium sp., + 3-HP", "value": 6.02}, {"measurement": "Relative mRNA level 3hibdh + 3-HP", "setting": "[2]; Methylocystis sp., + 3-HP", "value": 6.51}, {"measurement": "Relative mRNA level 3hibdh + 3-HP", "setting": "[2]; Novosphingobium sp., + 3-HP", "value": 5.98}, {"measurement": "Relative mRNA level 3hibdh + 3-HP", "setting": "[2]; Oceanimonas smirnovii, + 3-HP", "value": 6.44}, {"measurement": "Relative mRNA level 3hibdh + 3-HP", "setting": "[2]; Paracoccus sp., + 3-HP", "value": 6.32}, {"measurement": "Relative mRNA level 3hibdh + 3-HP", "setting": "[2]; Parvibaculum lavamentivorans, + 3-HP", "value": 7.31}, {"measurement": "Relative mRNA level 3hibdh + 3-HP", "setting": "[2]; Phenylobacterium kunshanensis, + 3-HP", "value": 7.43}, {"measurement": "Relative mRNA level 3hibdh + 3-HP", "setting": "[2]; Photobacterium gaetbuleda, + 3-HP", "value": 7.02}, {"measurement": "Relative mRNA level 3hibdh + 3-HP", "setting": "[2]; Polynucleobacter necessarius asymbioticus, + 3-HP", "value": 6.99}, {"measurement": "Relative mRNA level 3hibdh + 3-HP", "setting": "[2]; Pseudoalteromonas carrgeenovora, + 3-HP", "value": 5.76}, {"measurement": "Relative mRNA level 3hibdh + 3-HP", "setting": "[2]; Pseudogulbenkiania sp., + 3-HP", "value": 5.98}, {"measurement": "Relative mRNA level 3hibdh + 3-HP", "setting": "[2]; Pseudomonas denitrificans ATCC13867, + 3-HP", "value": 6.20}, {"measurement": "Relative mRNA level 3hibdh + 3-HP", "setting": "[2]; Pseudomonas fluorescens, + 3-HP", "value": 5.81}, {"measurement": "Relative mRNA level 3hibdh + 3-HP", "setting": "[2]; Pseudomonas knackmussii, + 3-HP", "value": 6.81}, {"measurement": "Relative mRNA level 3hibdh + 3-HP", "setting": "[2]; Pseudomonas protegens, + 3-HP", "value": 5.62}, {"measurement": "Relative mRNA level 3hibdh + 3-HP", "setting": "[2]; Pseudoxanthomonas spadix, + 3-HP", "value": 5.99}, {"measurement": "Relative mRNA level 3hibdh + 3-HP", "setting": "[2]; Psychrobacter phenylpyruvicus, + 3-HP", "value": 7.04}, {"measurement": "Relative mRNA level 3hibdh + 3-HP", "setting": "[2]; Rhodomicrobium vannielli, + 3-HP", "value": 7.01}, {"measurement": "Relative mRNA level 3hibdh + 3-HP", "setting": "[2]; Segniliparus rotundus, + 3-HP", "value": 5.81}, {"measurement": "Relative mRNA level 3hibdh + 3-HP", "setting": "[2]; Shewanella oneidensis, + 3-HP", "value": 5.81}, {"measurement": "Relative mRNA level 3hibdh + 3-HP", "setting": "[2]; Simiduia agarovorans, + 3-HP", "value": 5.76}, {"measurement": "Relative mRNA level 3hibdh + 3-HP", "setting": "[2]; Sinorhizobium meliloti, + 3-HP", "value": 5.79}, {"measurement": "Relative mRNA level 3hibdh + 3-HP", "setting": "[2]; Sphingobium chlorophenolicum, + 3-HP", "value": 5.99}, {"measurement": "Relative mRNA level 3hibdh + 3-HP", "setting": "[2]; Sphingomonas wittichii, + 3-HP", "value": 7.02}, {"measurement": "Relative mRNA level 3hibdh + 3-HP", "setting": "[2]; Sphingopyxis alaskensis, + 3-HP", "value": 7.00}, {"measurement": "Relative mRNA level 3hibdh + 3-HP", "setting": "[2]; Stenotrophomonas maltophilia, + 3-HP", "value": 6.02}, {"measurement": "Relative mRNA level 3hibdh + 3-HP", "setting": "[2]; Streptomyces nodosus, + 3-HP", "value": 6.72}, {"measurement": "Relative mRNA level 3hibdh + 3-HP", "setting": "[2]; Tatlockia micdadei, + 3-HP", "value": 6.61}, {"measurement": "Relative mRNA level 3hibdh + 3-HP", "setting": "[2]; Thalassospira xiamenensis, + 3-HP", "value": 7.02}, {"measurement": "Relative mRNA level 3hibdh + 3-HP", "setting": "[2]; Variovorax paradoxus, + 3-HP", "value": 6.59}, {"measurement": "Relative mRNA level 3hibdh + 3-HP", "setting": "[2]; Verminephrobacter eiseniae, + 3-HP", "value": 6.43}, {"measurement": "Relative mRNA level 3hibdh + 3-HP", "setting": "[2]; Vibrio furnissii, + 3-HP", "value": 6.03}, {"measurement": "Relative mRNA level 3hibdh + 3-HP", "setting": "[2]; Xanthobacter autotrophicus, + 3-HP", "value": 6.23}, {"measurement": "Relative mRNA level 3hibdh + 3-HP", "setting": "[2]; Xanthomonas campestri, + 3-HP", "value": 5.81}, {"measurement": "increase of expression of 3hibdh by 3-HP", "setting": "[2]; in the microorganisms (Table 7), 25 mM 3-HP in nutrient medium", "value": 14, "unit": "fold"}, {"measurement": "inducer of expression of 3hpdH", "setting": "[3]; FIG. 5", "value": "acts as an inducer"}, {"measurement": "fold increase of 3hpdh mRNA expression", "setting": "[3]; cells exposed to 25 mmol/L 3-HP vs no 3-HP, M9 medium, rpoD reference gene", "value": 46, "unit": "fold"}, {"measurement": "3hpdh expression on addition of 3-HP", "setting": "[3]; strain with C3 LysR gene removed", "value": "not amplified"}]}]}
